Reference: PubChem BioAssay (NCI)
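Abbreviation: GI50, concentration required for 50% inhibition of growth. TGI marks complete inhibition of growth.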

Columns and labels:
Assay in all cases: NCI anticancer screen, dose series, 384-well format
CAKI-1 renal = test system: CAKI-1 renal
CCRF-CEM leukemia = test system: CCRF-CEM leukemia
PC-3 prostate = test system: PC-3 prostate
M14 melanoma = test system: M14 melanoma
BT-549 breast = test system: BT-549 breast
UACC-257 melanoma = test system: UACC-257 melanoma
MDA-MB-468 breast = test system: MDA-MB-468 breast
SF-295 CNS = test system: SF-295 CNS
RPMI-8226 leukemia = test system: RPMI-8226 leukemia
K-562 leukemia = test system: K-562 leukemia
SK-MEL-28 melanoma = test system: SK-MEL-28 melanoma
HCC-2998 colon = test system: HCC-2998 colon
U251 glioblastoma = test system: U251 glioblastoma
SW-620 colon = test system: SW-620 colon
A498 renal = test system: A498 renal
NCI-H522 lung = test system: NCI-H522 lung
MALME-3M melanoma = test system: MALME-3M melanoma
SNB-19 CNS = test system: SNB-19 CNS
DU-145 prostate = test system: DU-145 prostate
HS 578T breast = test system: HS 578T breast
IGROV1 ovarian = test system: IGROV1 ovarian
HT29 colon = test system: HT29 colon
SF-268 CNS = test system: SF-268 CNS
HOP-92 NSCLC = test system: HOP-92 NSCLC
HCT-15 colon = test system: HCT-15 colon
T-47D breast = test system: T-47D breast
NCI-H23 lung = test system: NCI-H23 lung
A549 NSCLC = test system: A549 NSCLC
SK-MEL-5 melanoma = test system: SK-MEL-5 melanoma
HL-60(TB) leukemia = test system: HL-60(TB) leukemia
EKVX NSCLC = test system: EKVX NSCLC
KM12 colon = test system: KM12 colon
SN12C renal = test system: SN12C renal
SNB-75 CNS = test system: SNB-75 CNS
MOLT-4 leukemia = test system: MOLT-4 leukemia
HOP-62 NSCLC = test system: HOP-62 NSCLC
OVCAR-3 ovarian = test system: OVCAR-3 ovarian
SF-539 CNS = test system: SF-539 CNS
UACC-62 melanoma = test system: UACC-62 melanoma
OVCAR-4 ovarian = test system: OVCAR-4 ovarian
RXF 393 renal = test system: RXF 393 renal
OVCAR-8 ovarian = test system: OVCAR-8 ovarian
NCI-H322M lung = test system: NCI-H322M lung

COc1cc(F)ccc1-c1cc(Nc2cc(CS(C)(=N)=O)ccn2)ncc1F (stereo unspecified)
GI50 (CAKI-1 renal): 28.2 nM
TGI (CAKI-1 renal): > 100000 nM
GI50 (CCRF-CEM leukemia): 17.6 nM
TGI (CCRF-CEM leukemia): 36.2 nM
GI50 (PC-3 prostate): 39.9 nM
TGI (PC-3 prostate): 250 nM
GI50 (M14 melanoma): 34.7 nM
TGI (M14 melanoma): 157 nM
GI50 (BT-549 breast): 26.2 nM
TGI (BT-549 breast): 74 nM
GI50 (UACC-257 melanoma): 104 nM
TGI (UACC-257 melanoma): 251 nM
GI50 (MDA-MB-468 breast): 58.7 nM
TGI (MDA-MB-468 breast): 193 nM
GI50 (SF-295 CNS): 35.3 nM
TGI (SF-295 CNS): 180 nM
GI50 (RPMI-8226 leukemia): 41 nM
TGI (RPMI-8226 leukemia): 138 nM
GI50 (K-562 leukemia): 136 nM
TGI (K-562 leukemia): 567 nM
GI50 (SK-MEL-28 melanoma): 30.4 nM
TGI (SK-MEL-28 melanoma): 167 nM
GI50 (HCC-2998 colon): 37.9 nM
TGI (HCC-2998 colon): 207 nM
GI50 (U251 glioblastoma): 43.3 nM
TGI (U251 glioblastoma): > 100000 nM
GI50 (SW-620 colon): 43.7 nM
TGI (SW-620 colon): 475 nM
GI50 (A498 renal): 27 nM
TGI (A498 renal): > 100000 nM
GI50 (NCI-H522 lung): 149 nM
TGI (NCI-H522 lung): 385 nM
GI50 (MALME-3M melanoma): 50.3 nM
TGI (MALME-3M melanoma): 178 nM
GI50 (SNB-19 CNS): 44.6 nM
TGI (SNB-19 CNS): > 100000 nM
GI50 (DU-145 prostate): 29.1 nM
TGI (DU-145 prostate): 92.5 nM
GI50 (HS 578T breast): 15.5 nM
TGI (HS 578T breast): 41.6 nM
GI50 (IGROV1 ovarian): 33.7 nM
TGI (IGROV1 ovarian): > 100000 nM
GI50 (HT29 colon): 65.1 nM
TGI (HT29 colon): 257 nM
GI50 (SF-268 CNS): 17.1 nM
TGI (SF-268 CNS): 44.5 nM
GI50 (HOP-92 NSCLC): 62.9 nM
TGI (HOP-92 NSCLC): 46000 nM
GI50 (HCT-15 colon): 38.7 nM
TGI (HCT-15 colon): > 100000 nM
GI50 (T-47D breast): 46.2 nM
TGI (T-47D breast): > 100000 nM
GI50 (NCI-H23 lung): 30.4 nM
TGI (NCI-H23 lung): 130 nM
GI50 (A549 NSCLC): 42.9 nM
TGI (A549 NSCLC): > 100000 nM
GI50 (SK-MEL-5 melanoma): 28.3 nM
TGI (SK-MEL-5 melanoma): 109 nM
GI50 (HL-60(TB) leukemia): 15.4 nM
TGI (HL-60(TB) leukemia): 29.4 nM
GI50 (EKVX NSCLC): 73.9 nM
TGI (EKVX NSCLC): 498 nM
GI50 (KM12 colon): 23.7 nM
TGI (KM12 colon): 73.5 nM
GI50 (SN12C renal): 23.3 nM
TGI (SN12C renal): 121 nM
GI50 (SNB-75 CNS): 50.9 nM
TGI (SNB-75 CNS): 201 nM
GI50 (MOLT-4 leukemia): 27.3 nM
TGI (MOLT-4 leukemia): 89.1 nM
GI50 (HOP-62 NSCLC): 18.3 nM
TGI (HOP-62 NSCLC): 45.5 nM
GI50 (OVCAR-3 ovarian): 24.2 nM
TGI (OVCAR-3 ovarian): 80.1 nM
GI50 (SF-539 CNS): 26.3 nM
TGI (SF-539 CNS): 69 nM
GI50 (UACC-62 melanoma): 17.1 nM
TGI (UACC-62 melanoma): 49.2 nM
GI50 (OVCAR-4 ovarian): 165 nM
TGI (OVCAR-4 ovarian): 889 nM
GI50 (RXF 393 renal): 16 nM
TGI (RXF 393 renal): 37.6 nM
GI50 (OVCAR-8 ovarian): 30.5 nM
TGI (OVCAR-8 ovarian): 112 nM
GI50 (NCI-H322M lung): 29.2 nM
TGI (NCI-H322M lung): 134 nM
